From patent US7138361B2, “Herbicidal heterocycles” (E. I. du Pont de Nemours and Company, priority 2000, dated 2006)

What was measured:
Type in all cases: in vivo
[1] = test system: morning glory (Ipomoea hederacea); experiment: Test B postemergence; conditions: 13 to 15 days
Procedure, shortened: (§1)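 Post-treatment, species sat 13–15 days under greenhouse conditions before visual scoring against controls, 0 (no effect) through 100 (complete control). Application preemergence to sown seeds or postemergence at 1- to 4-leaf stage, using a non-phytotoxic solvent/surfactant formulation.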

[2] = test system: pigweed (Amaranthus retroflexus); experiment: Test B postemergence; conditions: 13 to 15 days
Procedure, shortened: as §1

corn (Zea mays) [3] = experiment: Test B postemergence; conditions: 13 to 15 days
Procedure, shortened: as §1

[4] = test system: lambsquarters (Chenopodium album); experiment: Test B postemergence; conditions: 13 to 15 days
Procedure, shortened: as §1

[5] = test system: blackgrass (Alopecurus myosuroides); experiment: Test B postemergence; conditions: 13 to 15 days
Procedure, shortened: as §1

[6] = test system: cocklebur (Xanthium strumarium); experiment: Test B postemergence; conditions: 13 to 15 days
Procedure, shortened: as §1

[7] = test system: wheat (Triticum aestivum); experiment: Test B postemergence; conditions: 13 to 15 days
Procedure, shortened: as §1

[8] = test system: velvetleaf (Abutilon theophrasti); experiment: Test B postemergence; conditions: 13 to 15 days
Procedure, shortened: as §1

wild oat (Avena fatua) = experiment: Test B postemergence; conditions: 13 to 15 days
Procedure, shortened: as §1

[9] = test system: Surinam grass (Brachiaria decumbens); experiment: Test B postemergence; conditions: 13 to 15 days
Procedure, shortened: as §1

[10] = test system: giant foxtail (Setaria faberii); experiment: Test B postemergence; conditions: 13 to 15 days
Procedure, shortened: as §1

[11] = test system: barnyardgrass (Echinochloa crus-galli); experiment: Test B postemergence; conditions: 13 to 15 days
Procedure, shortened: as §1

[12] = test system: crabgrass (Digitaria sanguinalis); experiment: Test B postemergence; conditions: 13 to 15 days
Procedure, shortened: as §1

[13] = test system: morning glory (Ipomoea hederacea); experiment: Test B preemergence; conditions: Preemergence, Rate 500 g/ha; scale 0 to 100, 0 no effect, 100 complete control
Procedure, shortened: as §1

[14] = test system: pigweed (Amaranthus retroflexus); experiment: Test B preemergence; conditions: Preemergence, Rate 500 g/ha; scale 0 to 100, 0 no effect, 100 complete control
Procedure, shortened: as §1

corn (Zea mays) [15] = experiment: Test B preemergence; conditions: scale 0 to 100, 0 no effect, 100 complete control
Procedure, shortened: as §1

[16] = test system: lambsquarters (Chenopodium album); experiment: Test B preemergence; conditions: scale 0 to 100, 0 no effect, 100 complete control
Procedure, shortened: as §1

[17] = test system: cocklebur (Xanthium strumarium); experiment: Test B preemergence; conditions: scale 0 to 100, 0 no effect, 100 complete control
Procedure, shortened: as §1

rice (Oryza saliva) = experiment: Test B preemergence; conditions: Preemergence, Rate 500 g/ha; scale 0 to 100, 0 no effect, 100 complete control
Procedure, shortened: as §1

[18] = test system: velvetleaf (Abutilon theophrasti); experiment: Test B preemergence; conditions: Preemergence, Rate 500 g/ha; scale 0 to 100, 0 no effect, 100 complete control
Procedure, shortened: as §1

[19] = test system: Surinam grass (Brachiaria decumbens); experiment: Test B preemergence; conditions: scale 0 to 100, 0 no effect, 100 complete control
Procedure, shortened: as §1

[20] = test system: giant foxtail (Setaria faberii); experiment: Test B preemergence; conditions: scale 0 to 100, 0 no effect, 100 complete control
Procedure, shortened: as §1

[21] = test system: barnyardgrass (Echinochloa crus-galli); experiment: Test B preemergence; conditions: scale 0 to 100, 0 no effect, 100 complete control
Procedure, shortened: as §1

[22] = test system: crabgrass (Digitaria sanguinalis); experiment: Test B preemergence; conditions: scale 0 to 100, 0 no effect, 100 complete control
Procedure, shortened: as §1

Sunflower = experiment: Test C preemergence; conditions: Rate 125 g/ha, scale 0 to 100, 0 no effect, 100 complete control
Nightshade = experiment: Test C preemergence; conditions: Rate 250 g/ha, visual evaluation after 12 to 14 days
[23] = Rate 125 g/ha, scale 0 (no effect) to 100 (complete control)
[24] = Rate 500 g/ha, scale 0 to 100, 0 is no effect, 100 is complete control

CC(C)(C)c1ccn(C2CCN(c3cccc(Br)c3)C2=O)n1 (stereo not drawn) [Compound 33]
0: Plant response rating, Morningglory [1, 23] | Plant response rating, Corn (corn (Zea mays) [3]; [23]) | Plant response rating, Corn (corn (Zea mays) [3]; [24]) | Plant response rating, Blackgrass [5, 23] | Plant response rating, Blackgrass [5, 24] | Plant response rating, Cocklebur [6, 23] | Plant response rating, Wheat [7, 23] | Plant response rating, Wheat [7, 24] | Plant response rating, Velvetleaf [8, 23] | Plant response rating, Velvetleaf [8, 24] | Plant response rating, Wild Oat (wild oat (Avena fatua); [23]) | Plant response rating, Wild Oat (wild oat (Avena fatua); [24]) | Plant response rating, Surinam grass [9, 23] | Plant response rating, Surinam grass [9, 24] | Plant response rating, Foxtail, Giant [10, 23] | Plant response rating, Barnyardgrass [11, 23] | Plant response rating, Barnyardgrass [11, 24] | Plant response rating, Crabgrass [12, 23] | Plant response rating, Crabgrass [12, 24] | Plant response rating, Morningglory [13] | Plant response rating, Corn (corn (Zea mays) [15]; Preemergence, Rate 500 g/ha) | Plant response rating, Corn (corn (Zea mays) [15]; preemergence, Rate 125 g/ha) | Plant response rating, Cocklebur ([17]; preemergence, Rate 125 g/ha) | Plant response rating, Rice (rice (Oryza saliva)) | Plant response rating, Velvetleaf [18] | Plant response rating, Crabgrass ([22]; preemergence, Rate 125 g/ha) | Plant response rating, Sunflower (Sunflower) | Plant response rating (0 to 100), Nightshade (Nightshade)
20: Plant response rating, Foxtail, Giant [10, 24] | Plant response rating, Foxtail, Giant ([20]; preemergence, Rate 125 g/ha)
60: Plant response rating, Surinam grass ([19]; Preemergence, Rate 500 g/ha)
80: Plant response rating, Pigweed [2, 24] | Plant response rating, Lambsquarters [4, 24] | Plant response rating, Foxtail, Giant ([20]; Preemergence, Rate 500 g/ha) | Plant response rating, Barnyardgrass ([21]; Preemergence, Rate 500 g/ha)
90: Plant response rating, Lambsquarters ([16]; preemergence, Rate 125 g/ha)
70: Plant response rating, Pigweed [2, 23] | Plant response rating, Lambsquarters [4, 23]
30: Plant response rating, Surinam grass ([19]; preemergence, Rate 125 g/ha) | Plant response rating, Barnyardgrass ([21]; preemergence, Rate 125 g/ha)
100: Plant response rating, Pigweed [14] | Plant response rating, Lambsquarters ([16]; Preemergence, Rate 500 g/ha) | Plant response rating, Crabgrass ([22]; Preemergence, Rate 500 g/ha)
10: Plant response rating, Morningglory [1, 24] | Plant response rating, Cocklebur [6, 24]

CC(C)(C)c1ccn(C2CCN(c3ccc(Cl)c(Cl)c3)C2=O)n1 (stereo not drawn) [Compound 34]
70: Plant response rating, Foxtail, Giant ([20]; Preemergence, Rate 500 g/ha)
20: Plant response rating, Lambsquarters ([16]; preemergence, Rate 125 g/ha) | Plant response rating, Surinam grass ([19]; Preemergence, Rate 500 g/ha)
60: Plant response rating, Barnyardgrass ([21]; Preemergence, Rate 500 g/ha)
0: Plant response rating, Morningglory [1, 23] | Plant response rating, Morningglory [1, 24] | Plant response rating, Corn (corn (Zea mays) [3]; [23]) | Plant response rating, Corn (corn (Zea mays) [3]; [24]) | Plant response rating, Blackgrass [5, 23] | Plant response rating, Blackgrass [5, 24] | Plant response rating, Cocklebur [6, 23] | Plant response rating, Cocklebur [6, 24] | Plant response rating, Wheat [7, 23] | Plant response rating, Wheat [7, 24] | Plant response rating, Velvetleaf [8, 23] | Plant response rating, Velvetleaf [8, 24] | Plant response rating, Wild Oat (wild oat (Avena fatua); [23]) | Plant response rating, Wild Oat (wild oat (Avena fatua); [24]) | Plant response rating, Surinam grass [9, 23] | Plant response rating, Surinam grass [9, 24] | Plant response rating, Foxtail, Giant [10, 23] | Plant response rating, Foxtail, Giant [10, 24] | Plant response rating, Barnyardgrass [11, 23] | Plant response rating, Barnyardgrass [11, 24] | Plant response rating, Crabgrass [12, 23] | Plant response rating, Crabgrass [12, 24] | Plant response rating, Morningglory [13] | Plant response rating, Corn (corn (Zea mays) [15]; Preemergence, Rate 500 g/ha) | Plant response rating, Corn (corn (Zea mays) [15]; preemergence, Rate 125 g/ha) | Plant response rating, Cocklebur ([17]; Preemergence, Rate 500 g/ha) | Plant response rating, Cocklebur ([17]; preemergence, Rate 125 g/ha) | Plant response rating, Rice (rice (Oryza saliva)) | Plant response rating, Surinam grass ([19]; preemergence, Rate 125 g/ha) | Plant response rating, Foxtail, Giant ([20]; preemergence, Rate 125 g/ha) | Plant response rating, Barnyardgrass ([21]; preemergence, Rate 125 g/ha) | Plant response rating, Sunflower (Sunflower) | Plant response rating (0 to 100), Nightshade (Nightshade)
90: Plant response rating, Pigweed [2, 23] | Plant response rating, Pigweed [2, 24] | Plant response rating, Lambsquarters [4, 23]
100: Plant response rating, Lambsquarters [4, 24] | Plant response rating, Pigweed [14] | Plant response rating, Lambsquarters ([16]; Preemergence, Rate 500 g/ha) | Plant response rating, Velvetleaf [18] | Plant response rating, Crabgrass ([22]; preemergence, Rate 125 g/ha)
